Laboratory results published in US8633184B2, “Benzoazepin-oxy-acetic acid derivatives as PPAR-delta agonists used for the increase of HDL-C, lower LDL-C and lower cholesterol” (Janssen Pharmaceutica N.V., priority 2006, dated 2014).
“And” between values parts separate entries of the source, which are not always exact repeats. Identical values can stand only once. Like-named read-outs stand apart in the source and are kept apart here.

Key:
PPARδ = molecular target: T1, PPARδ (Homo sapiens, UniProt Q03181); experiment: Transfection assay, GAL4-PPARδ LBD luciferase reporter in HEK293 cells; type: cell-based; settings: 18-24 hrs
T1 construct: expressed in transfected cells; host or cells: HEK293
T1 sequence (Q03181 211-439 limits assumed): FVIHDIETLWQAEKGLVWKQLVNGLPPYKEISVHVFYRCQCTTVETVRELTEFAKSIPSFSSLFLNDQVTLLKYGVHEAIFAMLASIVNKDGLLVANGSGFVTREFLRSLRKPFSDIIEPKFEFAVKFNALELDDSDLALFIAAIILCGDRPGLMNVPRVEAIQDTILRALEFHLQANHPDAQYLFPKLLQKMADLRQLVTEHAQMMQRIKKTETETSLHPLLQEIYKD
Procedure: (§1) HEK293 cells were grown in DMEM/F12 medium supplemented with 10% FBS and glutamine (Invitrogen) and incubated in a 5% CO2 incubator at 37° C. The cells were co-transfected using DMRIE-C reagent (Invitrogen) in serum free medium (Opti-MEM, Invitrogen) with two mammalian expression plasmids, one containing the DNA sequence coding for the ligand binding domains of either PPARα, γ or δ fused to the yeast GAL4 DNA binding domain and the other containing the promoter sequence of the yeast GAL4 (UAS) fused to the firefly luciferase cDNA reporter. The next day, the medium was changed to DMEM/F12 medium supplemented with 5% charcoal treated serum (Hyclone) and glutamine. After 6 hrs the cells were trypsinized and seeded at a density of 50,000 cells/well into 96 well plates and incubated overnight as above. The cells were then treated with test compounds or vehicle and incubated for 18-24 hrs as above. Luciferase reporter activity was measured using the Steady-Glo Luciferase Assay Kit from Promega. DMRIE-C Reagent was purchased from GIBCO Cat. No. 10459-014. OPTI-MEM I Reduced Serum Medium was purchased from GIBCO (Cat. No. 31985). Steady-Glo Luciferase Assay Kit was purchased from Promega (Part #E254B).
(§2) A variety of example compounds have been made and tested, with a range of in vitro results. Below, in Table 2, are representative compounds and data; in some cases, where multiple EC50's are shown, multiple measurements were taken. Naturally, different compounds in Formula (I) may have not activities identical to any one compound below.

[1] = system: Sprague Dawley rats fed a diet high in cholesterol; experiment: Rat study: high cholesterol diet, serum lipids and liver weights after 8 days treatment; type: in vivo; settings: for HDL-C / LDL-C / Total Cholesterol / Triglycerides / Liver Weights: 8 days
Excerpt: (§3) Rats carry the majority of serum cholesterol in the HDL lipoprotein fraction while humans carry the majority of serum cholesterol in LDL and VLDL lipoproteins. To mimic a human hypercholesterolemic state in a rodent model, Sprague Dawley rats were fed a diet high in cholesterol (Research Diets, C13002) for 6 days before treatment with the compounds for another 8 days while remaining on the diet. Under this dietary regimen, the vehicle controls (HC: High Cholesterol) typically have serum total cholesterol and LDL-C levels that are increased by 3-8 fold and serum HDL-C is decreased by approximately 30-50% compared with chow diet (lean) controls.
(§4) Compound 7 had no effect on serum triglycerides or liver weights.

[2] = Rat study: drug plasma levels (pharmacokinetics); type: in vivo
Excerpt: as §3, §4

PPARγ = molecular target: T2, PPARγ (Homo sapiens, UniProt P37231); experiment: Transfection assay, GAL4-PPARγ LBD luciferase reporter in HEK293 cells; type: cell-based; settings: 18-24 hrs
T2 construct: expressed in transfected cells; host or cells: HEK293
T2 sequence (P37231 238-503 limits assumed): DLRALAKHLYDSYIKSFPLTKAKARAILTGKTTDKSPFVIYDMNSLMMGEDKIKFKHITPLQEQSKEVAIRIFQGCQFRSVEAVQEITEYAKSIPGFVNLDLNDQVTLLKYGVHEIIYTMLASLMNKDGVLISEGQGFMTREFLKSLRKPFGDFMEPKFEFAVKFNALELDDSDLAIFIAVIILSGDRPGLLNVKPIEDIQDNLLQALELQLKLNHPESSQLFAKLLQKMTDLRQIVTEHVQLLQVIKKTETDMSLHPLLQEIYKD
Procedure: as §1, §2

[3] = Rat study: drug plasma levels (pharmacokinetics); type: in vivo; settings: for Cmax / half-life / AUC(0-t): Sprague Dawley, plasma
PPARα = molecular target: T3, PPARα (Homo sapiens, UniProt Q07869); experiment: Transfection assay, GAL4-PPARα LBD luciferase reporter in HEK293 cells; type: cell-based; settings: 18-24 hrs
T3 construct: expressed in transfected cells; host or cells: HEK293
T3 sequence (Q07869 239-466 limits assumed): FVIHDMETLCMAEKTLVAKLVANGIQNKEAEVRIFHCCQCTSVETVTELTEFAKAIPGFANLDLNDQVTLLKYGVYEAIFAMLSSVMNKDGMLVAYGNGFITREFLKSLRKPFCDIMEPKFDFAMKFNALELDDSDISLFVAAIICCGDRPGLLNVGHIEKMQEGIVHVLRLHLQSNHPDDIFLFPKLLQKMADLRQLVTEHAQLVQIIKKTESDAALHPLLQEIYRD
Procedure: as §1, §2

## O=C(O)COc1ccc2c(c1)CCN(Cc1ccc(-c3ccc(C(F)(F)F)cc3)s1)CC2 [compound 7]
PPARδ
  EC50: 0.0145 µM and 0.0189 µM
[1]; 0.1 mg/kg
  HDL-C: 24.2 ± 2.9 mg/dL
  LDL-C: 32.7 ± 4.7 mg/dL
  Total Cholesterol: 239.0 ± 22.4 mg/dL
  Triglycerides: 269.8 ± 27.8 mg/dL
[1]; 0.3 mg/kg
  HDL-C: 29.6 ± 1.4 mg/dL
  LDL-C: 31.2 ± 1.5 mg/dL
  Liver Weights: 25.0 ± 0.8
  Total Cholesterol: 233.2 ± 9.5 mg/dL
  Triglycerides: 264.7 ± 29.8 mg/dL
[1]; 1 mg/kg
  HDL-C: 31.8 ± 0.9 mg/dL
  LDL-C: 24.4 ± 1.3 mg/dL
  Liver Weights: 23.9 ± 0.5
  Total Cholesterol: 173.3 ± 7.9 mg/dL
  Triglycerides: 237.7 ± 25.4 mg/dL
[1]; 3 mg/kg
  HDL-C: 39.6 ± 1.6 mg/dL
  LDL-C: 20.6 ± 1.5 mg/dL
  Liver Weights: 27.2 ± 0.9
  Total Cholesterol: 152.2 ± 8.5 mg/dL
  Triglycerides: 299.5 ± 35.9 mg/dL
[1]; 8 days treatment
  LDL-C levels (effect in words): significant decreases
  liver weights (effect in words): no effect
  serum total cholesterol levels (effect in words): significant decreases
  serum triglycerides (effect in words): no effect
[1]; 8 days treatment, achieving the levels of the chow fed controls
  HDL-C levels (effect in words): significantly increased
[2]
  drug plasma levels (Cmax and AUC), in words: dose-related increases
[2]; Dose 0.1, Multiple, n = 2
  Tmax: 2.5 h
[2]; Dose 0.3, Multiple
  Tmax: 3 h
[2]; Dose 1, Multiple, n = 2
  Tmax: 4 h
[2]; Dose 3, Single, n = 2
  Tmax: 5.5 h
[2]; Sprague Dawley, plasma, 0.1 mg/kg, Dose 0.1, Multiple, n = 2, read-out: AUC0-24
  AUC(0-t): 772 ng·h/mL
[2]; Sprague Dawley, plasma, 0.3 mg/kg, Dose 0.3, Multiple, read-out: t½
  half-life: ~22 h
[2]; Sprague Dawley, plasma, 3 mg/kg, Dose 3, Multiple, read-out: AUC0-24
  AUC(0-t): 37100 ng·h/mL
PPARγ
  EC50: > 3 µM
[3]; Dose 3, Multiple
  Tmax: 5 h
[3]; 0.1 mg/kg, Dose 0.1, Multiple, n = 2
  Cmax: 57 ng/mL
[3]; 0.1 mg/kg, Dose 0.1, Multiple, n = 2, read-out: t½
  half-life: ~13 h
[3]; 0.3 mg/kg, Dose 0.3, Multiple
  Cmax: 124 ng/mL
[3]; 0.3 mg/kg, Dose 0.3, Multiple, read-out: AUC0-24
  AUC(0-t): 1640 ng·h/mL
[3]; 1 mg/kg, Dose 1, Multiple, n = 2
  Cmax: 595 ng/mL
[3]; 1 mg/kg, Dose 1, Multiple, n = 2, read-out: AUC0-24
  AUC(0-t): 10900 ng·h/mL
[3]; 3 mg/kg, Dose 3, Multiple
  Cmax: 2030 ng/mL
[3]; 3 mg/kg, Dose 3, Multiple, read-out: t½
  half-life: ~36 h
[3]; 3 mg/kg, Dose 3, Single, n = 2
  Cmax: 733 ng/mL
[3]; 3 mg/kg, Dose 3, Single, n = 2, read-out: AUC0-24
  AUC(0-t): 14200 ng·h/mL
[3]; 3 mg/kg, Dose 3, Single, n = 2, read-out: t½
  half-life: ~29 h
PPARα
  EC50: > 3 µM

## O=C(O)COc1ccc2c(c1)CCN(Cc1ccc(-c3ccc(Cl)cc3Cl)o1)CC2 [compound 33]
PPARδ
  EC50: 0.148 µM and 0.167 µM
PPARγ
  EC50: > 3 µM
PPARα
  EC50: > 3 µM

## CC(C)(Oc1ccc2c(c1)CCN(Cc1ccc(-c3ccc(C(F)(F)F)cc3)o1)CC2)C(=O)O [compound 10]
PPARδ
  EC50: 0.053 µM and 0.0877 µM
PPARγ
  EC50: > 3 µM
PPARα
  EC50: > 3 µM

## O=C(O)COc1ccc2c(c1)CCN(Cc1cc(-c3ccc(C(F)(F)F)cc3)cs1)CC2 [compound 23]
PPARδ
  EC50: 0.109 µM and 0.0702 µM
PPARγ
  EC50: > 3 µM
PPARα
  EC50: > 3 µM

## O=C(O)COc1ccc2c(c1)CCN(Cc1ccc(-c3ccc(C(F)(F)F)cc3)nc1)CC2 [compound 46]
PPARδ
  EC50: 0.312 µM
PPARγ
  EC50: > 3 µM
PPARα
  EC50: > 1 µM

## O=C(O)COc1ccc2c(c1)CCN(Cc1ccc(-c3ccc(C(F)(F)F)cc3)cc1)CC2 [compound 40]
PPARδ
  EC50: > 1 µM
PPARγ
  EC50: > 3 µM
PPARα
  EC50: > 3 µM

## Cc1c(-c2ccc(C(F)(F)F)cc2)csc1CN1CCc2ccc(OC(C)(C)C(=O)O)cc2CC1 [compound 16]
PPARδ
  EC50: 0.375 µM
PPARγ
  EC50: > 3 µM
PPARα
  EC50: > 3 µM

## O=C(O)C1(Oc2ccc3c(c2)CCN(Cc2ccc(-c4ccc(C(F)(F)F)cc4)s2)CC3)CC1 [compound 37]
PPARδ
  EC50: 0.0053 µM
PPARγ
  EC50: > 3 µM
PPARα
  EC50: > 3 µM
